Results published in patent US9895346B2, “Applications of substituent benzyloxy group containing ether compounds for preparing antitumor drugs” (Sinochem Corporation, priority 2013, dated 2018).

Key:
[1] = tested on: bladder cancer cell line J82; assay: In vitro cell inhibition assay (crystal violet), bladder cancer J82; assay type: cell-based, human
Excerpt: (§1) In vitro Cell inhibition assay is as follows:
(§2) The human cancer cell lines used for this assay were bladder cancer J82, T24, prostate cancer LNCap, PC-3, lung cancer A549, H157, H460, H520, colon cancer HCT8, HCT116, RkO, and leukemia HL-60, etc.
(§3) In vitro cell culture technology was selected for the determination of inhibition rate bladder cancer cell lines J82 and T24, prostate cancer cell lines LNCap and PC-3, lung cancer cell lines A549, H157, H460 and H520. 1000 to 3000 cells were inoculated to 24-well plate, followed by addition of 1 mL culture medium well known to researchers in this field to each well, the cells were cultured in 5% incubator for 24 hours at 37° C., then the different concentration compounds and controls were added to each well. It should be noted that the added volume is not more than 0.5% of total volume. After completion of addition, the cells continued being cultured in incubator for one week, the culture medium was removed and washed by cold PBS of 1 mL once, and then fixed for 10 minutes at room temperature with 1% formalin, followed by wash with PBS of 1 mL. After fixation, stain was carried out with 0.1% crystal violet for 30 minutes. 0.1% crystal violet was recycled. The stained cells were washed gently with deionized water, dried at room temperature and kepted. The inhibition rate was calculated according to the foiling equation. The controls are Selumetinib (AZD6244), Gefitinib, Cisplatin. Inhibition rate=number of left cells each treatment/number of left cells of untreated control×100%

[2] = tested on: bladder cancer cell line T24; assay: In vitro cell inhibition assay (crystal violet), bladder cancer T24; assay type: cell-based, human
Excerpt: as §1, §2, §3

[3] = tested on: prostate cancer cell line LNCap; assay: In vitro cell inhibition assay (crystal violet), prostate cancer LNCap; assay type: cell-based, human
Excerpt: as §1, §2, §3

[4] = tested on: prostate cancer cell line PC-3; assay: In vitro cell inhibition assay (crystal violet), prostate cancer PC-3; assay type: cell-based, human
Excerpt: as §1, §2, §3

[5] = tested on: lung cancer cell line A549; assay: In vitro cell inhibition assay (crystal violet), lung cancer A549; assay type: cell-based, human
Excerpt: as §1, §2, §3

[6] = tested on: lung cancer cell line H157; assay: In vitro cell inhibition assay (crystal violet), lung cancer H157; assay type: cell-based, human
Excerpt: as §1, §2, §3

[7] = tested on: lung cancer cell line H460; assay: In vitro cell inhibition assay (crystal violet), lung cancer H460; assay type: cell-based, human
Excerpt: as §1, §2, §3

[8] = tested on: lung cancer cell line H520; assay: In vitro cell inhibition assay (crystal violet), lung cancer H520; assay type: cell-based, human
Excerpt: as §1, §2, §3

[9] = tested on: colon cancer HCT8; assay: In vitro cell inhibition assay, colon cancer HCT8; assay type: cell-based, human; settings: Homo sapiens, read-out: Inhibition rate on human cancer cells
Excerpt: as §1, §2

[10] = tested on: colon cancer HCT116; assay: In vitro cell inhibition assay, colon cancer HCT116; assay type: cell-based, human; settings: Homo sapiens, read-out: Inhibition rate on human cancer cells
Excerpt: as §1, §2

[11] = tested on: colon cancer RkO; assay: In vitro cell inhibition assay, colon cancer RkO; assay type: cell-based, human; settings: Homo sapiens, read-out: Inhibition rate on human cancer cells
Excerpt: as §1, §2

[12] = tested on: human leukemia HL-60 cells; assay: Proliferation inhibition of human leukemia HL-60 cells, MTT method; assay type: cell-based; settings: 48 h incubation, OPTI-MEM medium
Experimental: The inhibition rate of human leukemia HL-60 cells was evaluated by regular MTT method. The human leukemia HL-60 cells were picked up from cell incubator, after washed for twice using PBS, cells were digested by 0.25% trypsin, and then add medium to terminate the digestion. After cells were collected using centrifuge and re-suspended, counting cells under inverted microscope and adding medium to make a density which was 5×10^4 cells/mL. After 100 μL aliquots were added to each well of 96-well microtiter plates, cells were cultured in 5% incubator for overnight at 37° C., then the different concentration compounds were added to each well. After incubation for 48 h, MTT solution was added to each well and plates were then incubated for 4 h. The MTT tetrazolium was reduced to formazan by living cells. Then the formazan crystals were dissolved though adding DMSO to each well. The absorbance was read at 570 nm with a microplate reader.

[13] = Homo sapiens, J82, 5.0 μM, read-out: Inhibition rate on human cancer cells
[14] = Homo sapiens, T24, 5.0 μM, read-out: Inhibition rate on human cancer cells
[15] = Homo sapiens, 5.0 μM, read-out: Inhibition rate on human cancer cells
[16] = Homo sapiens, PC-3, 5.0 μM, read-out: Inhibition rate on human cancer cells

## Cn1cnc2c(F)c(Nc3ccc(Br)cc3Cl)c(C(=O)NOCCO)cc21 [Selumetinib, reference compound]
[1]; [13]
  inhibition at 5 µM: 70%
[2]; [14]
  inhibition at 5 µM: 70%
[3]; [15]
  inhibition at 5 µM: 20%
[4]; [16]
  inhibition at 5 µM: 0%
[5]; Homo sapiens, A549, 0.25 μM, read-out: Inhibition rate on human cancer cells
  inhibition at 0.25 µM: 0%
[5]; Homo sapiens, A549, 0.5 μM, read-out: Inhibition rate on human cancer cells
  inhibition at 0.5 µM: 0%
[5]; Homo sapiens, A549, 1.0 μM, read-out: Inhibition rate on human cancer cells
  inhibition at 1 µM: 0%
[5]; Homo sapiens, A549, 2.5 μM, read-out: Inhibition rate on human cancer cells
  inhibition at 2.5 µM: 0%
[5]; Homo sapiens, A549, 5.0 μM, read-out: Inhibition rate on human cancer cells
  inhibition at 5 µM: 10%
[6]; Homo sapiens, NCI-H157, H157, 5.0 μM, read-out: Inhibition rate on human cancer cells
  inhibition at 5 µM: 20%
[7]; Homo sapiens, NCI-H460, H460, 0.25 μM, read-out: Inhibition rate on human cancer cells
  inhibition at 0.25 µM: 0%
[7]; Homo sapiens, NCI-H460, H460, 0.5 μM, read-out: Inhibition rate on human cancer cells
  inhibition at 0.5 µM: 0%
[7]; Homo sapiens, NCI-H460, H460, 1.0 μM, read-out: Inhibition rate on human cancer cells
  inhibition at 1 µM: 0%
[7]; Homo sapiens, NCI-H460, H460, 2.5 μM, read-out: Inhibition rate on human cancer cells
  inhibition at 2.5 µM: 0%
[7]; Homo sapiens, NCI-H460, H460, 5.0 μM, read-out: Inhibition rate on human cancer cells
  inhibition at 5 µM: 60%
[8]; Homo sapiens, NCI-H520, H520, 5.0 μM, read-out: Inhibition rate on human cancer cells
  inhibition at 5 µM: 20%
[9]; HCT 8, 1.0 μM
  inhibition at 1 µM: 20%
[9]; HCT 8, 2.5 μM
  inhibition at 2.5 µM: 40%
[9]; HCT 8, 5.0 μM
  inhibition at 5 µM: 50%
[10]; HCT 116, 0.25 μM
  inhibition at 0.25 µM: 50%
[10]; HCT 116, 0.5 μM
  inhibition at 0.5 µM: 75%
[10]; HCT 116, 1.0 μM
  inhibition at 1 µM: 80%
[10]; HCT 116, 2.5 μM
  inhibition at 2.5 µM: 85%
[10]; HCT 116, 5.0 μM
  inhibition at 5 µM: 90%
[11]; 0.25 μM
  inhibition at 0.25 µM: 30%
[11]; 0.5 μM
  inhibition at 0.5 µM: 80%
[11]; 1.0 μM
  inhibition at 1 µM: 85%
[11]; 2.5 μM
  inhibition at 2.5 µM: 90%
[11]; 5.0 μM
  inhibition at 5 µM: 95%

## jiaxiangjunzhi [Compound 28-5]
[1]; J82, 1.0 μM
  Inhibition rate on human cancer cells: 80%
[1]; J82, 2.5 μM
  Inhibition rate on human cancer cells: 100%
[1]; J82, 5.0 μM
  Inhibition rate on human cancer cells: 100%
[2]; T24, 0.25 μM
  Inhibition rate on human cancer cells: 100%
[2]; T24, 0.5 μM
  Inhibition rate on human cancer cells: 100%
[2]; T24, 1.0 μM
  Inhibition rate on human cancer cells: 100%
[2]; T24, 2.5 μM
  Inhibition rate on human cancer cells: 100%
[2]; T24, 5.0 μM
  Inhibition rate on human cancer cells: 100%
[3]; 1.0 μM
  Inhibition rate on human cancer cells: 100%
[3]; 2.5 μM
  Inhibition rate on human cancer cells: 100%
[3]; 5.0 μM
  Inhibition rate on human cancer cells: 100%
[4]; PC-3, 1.0 μM
  Inhibition rate on human cancer cells: 100%
[4]; PC-3, 2.5 μM
  Inhibition rate on human cancer cells: 100%
[4]; PC-3, 5.0 μM
  Inhibition rate on human cancer cells: 100%
[5]; A549, 1.0 μM
  Inhibition rate on human cancer cells: 80%
[5]; A549, 2.5 μM
  Inhibition rate on human cancer cells: 100%
[5]; A549, 5.0 μM
  Inhibition rate on human cancer cells: 100%
[6]; H157, 0.5 μM
  Inhibition rate on human cancer cells: 100%
[6]; H157, 1.0 μM
  Inhibition rate on human cancer cells: 100%
[6]; H157, 2.5 μM
  Inhibition rate on human cancer cells: 100%
[6]; H157, 5.0 μM
  Inhibition rate on human cancer cells: 100%
[7]; H460, 0.5 μM
  Inhibition rate on human cancer cells: 100%
[7]; H460, 1.0 μM
  Inhibition rate on human cancer cells: 100%
[7]; H460, 2.5 μM
  Inhibition rate on human cancer cells: 100%
[7]; H460, 5.0 μM
  Inhibition rate on human cancer cells: 100%
[8]; H520, 0.25 μM
  Inhibition rate on human cancer cells: 70%
[8]; H520, 0.5 μM
  Inhibition rate on human cancer cells: 80%
[8]; H520, 1.0 μM
  Inhibition rate on human cancer cells: 90%
[8]; H520, 2.5 μM
  Inhibition rate on human cancer cells: 100%
[8]; H520, 5.0 μM
  Inhibition rate on human cancer cells: 100%
[12]; concentration 1 μM
  Proliferation inhibitory effect on human leukemia HL-60 cell (%): 31.7%
[12]; concentration 10 μM
  Proliferation inhibitory effect on human leukemia HL-60 cell (%): 59.3%
[12]; concentration 100 μM
  Proliferation inhibitory effect on human leukemia HL-60 cell (%): 73.8%

## CO/C=C(/C(=O)OC)c1ccccc1COc1cc(-c2ccc(Cl)cc2)nn1C [pyraoxystrobin]
[1]; J82, 0.25 μM
  Inhibition rate on human cancer cells: 70%
[1]; J82, 0.5 μM
  Inhibition rate on human cancer cells: 100%
[1]; J82, 1.0 μM
  Inhibition rate on human cancer cells: 100%
[1]; J82, 2.5 μM
  Inhibition rate on human cancer cells: 100%
[1]; J82, 5.0 μM
  Inhibition rate on human cancer cells: 100%
[2]; T24, 0.25 μM
  Inhibition rate on human cancer cells: 100%
[2]; T24, 0.5 μM
  Inhibition rate on human cancer cells: 100%
[2]; T24, 1.0 μM
  Inhibition rate on human cancer cells: 100%
[2]; T24, 2.5 μM
  Inhibition rate on human cancer cells: 100%
[2]; T24, 5.0 μM
  Inhibition rate on human cancer cells: 100%
[3]; 0.25 μM
  Inhibition rate on human cancer cells: 100%
[3]; 0.5 μM
  Inhibition rate on human cancer cells: 100%
[3]; 1.0 μM
  Inhibition rate on human cancer cells: 100%
[3]; 2.5 μM
  Inhibition rate on human cancer cells: 100%
[3]; 5.0 μM
  Inhibition rate on human cancer cells: 100%
[4]; PC-3, 0.25 μM
  Inhibition rate on human cancer cells: 100%
[4]; PC-3, 0.5 μM
  Inhibition rate on human cancer cells: 100%
[4]; PC-3, 1.0 μM
  Inhibition rate on human cancer cells: 100%
[4]; PC-3, 2.5 μM
  Inhibition rate on human cancer cells: 100%
[4]; PC-3, 5.0 μM
  Inhibition rate on human cancer cells: 100%

## CO/C=C(/C(=O)OC)c1ccccc1COc1cc(C(F)(F)F)nc(Nc2ccc(Cl)cc2Cl)n1 [compound A, reference compound]
[1]; Homo sapiens, J82, 0.25 μM, read-out: Inhibition rate on human cancer cells
  inhibition at 0.25 µM: 0%
[1]; Homo sapiens, J82, 0.5 μM, read-out: Inhibition rate on human cancer cells
  inhibition at 0.5 µM: 50%
[1]; Homo sapiens, J82, 1.0 μM, read-out: Inhibition rate on human cancer cells
  inhibition at 1 µM: 95%
[1]; Homo sapiens, J82, 2.5 μM, read-out: Inhibition rate on human cancer cells
  inhibition at 2.5 µM: 100%
[1]; [13]
  inhibition at 5 µM: 100%
[2]; Homo sapiens, T24, 0.5 μM, read-out: Inhibition rate on human cancer cells
  inhibition at 0.5 µM: 0%
[2]; Homo sapiens, T24, 1.0 μM, read-out: Inhibition rate on human cancer cells
  inhibition at 1 µM: 100%
[2]; Homo sapiens, T24, 2.5 μM, read-out: Inhibition rate on human cancer cells
  inhibition at 2.5 µM: 100%
[2]; [14]
  inhibition at 5 µM: 100%
[3]; Homo sapiens, 0.5 μM, read-out: Inhibition rate on human cancer cells
  inhibition at 0.5 µM: 0%
[3]; Homo sapiens, 1.0 μM, read-out: Inhibition rate on human cancer cells
  inhibition at 1 µM: 100%
[3]; Homo sapiens, 2.5 μM, read-out: Inhibition rate on human cancer cells
  inhibition at 2.5 µM: 100%
[3]; [15]
  inhibition at 5 µM: 100%
[4]; Homo sapiens, PC-3, 0.5 μM, read-out: Inhibition rate on human cancer cells
  inhibition at 0.5 µM: 0%
[4]; Homo sapiens, PC-3, 1.0 μM, read-out: Inhibition rate on human cancer cells
  inhibition at 1 µM: 85%
[4]; Homo sapiens, PC-3, 2.5 μM, read-out: Inhibition rate on human cancer cells
  inhibition at 2.5 µM: 100%
[4]; [16]
  inhibition at 5 µM: 100%

## CO/C=C(/C(=O)OC)c1ccccc1Oc1cc(Oc2ccccc2C#N)ncn1 [Azoxystrobin]
[1]; J82, 5.0 μM
  Inhibition rate on human cancer cells: 0%
[2]; T24, 5.0 μM
  Inhibition rate on human cancer cells: 0%
[3]; 5.0 μM
  Inhibition rate on human cancer cells: 0%
[4]; PC-3, 5.0 μM
  Inhibition rate on human cancer cells: 0%
